Tests used:
[1] = Gelation test in solvents at room temperature; type: physicochemical; set-up: key to Gelation test result: I, insoluble; P, precipitating; S, soluble at ~20 mg/mL; G, gel at room temperature; number is minimum gelation concentration; conditions: for Gelation test result / minimum gelation concentration: room temperature; for MGC in DMSO:H2O (1:2): Table 2
Experimental: Gelation tests were performed by adding incremental amounts of compounds to a solvent or solvent system at room temperature and observing the results (i.e., gel formation, solubility of compounds, insolubility of compounds, or formation of a precipitate). […] The term “precipation” means that the compound dissolves upon heating and sonicating, however, it crashes out of solution when the heat is removed.
After the compounds were synthesized, they were screened for gelation properties. […] For the compounds with new chiral centers, they formed gels in aqueous environment preferentially.

Gel melting temperatures = type: physicochemical; conditions: gel in DMSO:H2O (1:2) at its minimum gelation concentration
Experimental: Melting points were measured for compounds that were gelators in the DMSO:H2O (1:2) solvent system. In general, a compound was dissolved in heated solvent in a small vial at its minimum gelation concentration and transferred into a tube (e.g., an NMR tube) while the mixture was still warm. The tube was sonicated and cooled until a stable gel formed. The tube was immersed in an oil bath and the temperature of the solid-to-liquid phase transition was monitored using a thermometer as the oil bath temperature was changed. Gel melting temperatures are presented in […]

[2] = Optical micrographs of gels (morphology); type: physicochemical; conditions: for morphology of the gel: optical micrographs, FIG. 3
Text: Solvent for 1(a-d) is DMSO:H2O (1:2); solvent for 1(e-f) is EtOH:H2O (1:2).
The EtOH/H2O gel has shown more uniform fibrous structures with an average diameter of 0.5 μm and over 300 μm in length (FIG. 3e, f).

Structure (SMILES) | Gelation test result ([1]; DMSO:H2O (1:1)) | Gelation test result ([1]; DMSO:H2O (1:2)) | Gelation test result ([1]; EtOH) | Gelation test result ([1]; EtOH:H2O (1:1)) | Gelation test result ([1]; EtOH:H2O (1:2)) | Gelation test result ([1]; H2O) | Gelation test result ([1]; Hexane) | melting point [°C] | minimum gelation concentration ([1]; DMSO:H2O (1:1)) [mg/mL] | minimum gelation concentration ([1]; DMSO:H2O (1:2)) [mg/mL] | MGC in DMSO:H2O (1:2) ([1]; DMSO:H2O (1:2)) [mg/mL] | minimum gelation concentration ([1]; EtOH:H2O (1:2)) [mg/mL] | T1, temperature at which gel begins to melt (Gel melting temperatures) [°C] | T2, temperature at which gel is approximately half melted (Gel melting temperatures) [°C] | T3, temperature at which gel is fully melted (Gel melting temperatures) [°C] | minimum gelation concentration ([1]; EtOH:H2O (1:1)) [mg/mL] | also measured
CC(=O)N(CC(=O)NC1CCCCC1)Cc1ccccc1 [Compound 14, N-benzyl-N-(2-(cyclohexylamino)-2-oxoethyl)acetamide] | S (S, soluble at ~20 mg/mL) | P | S (S, soluble at ~20 mg/mL) | S (S, soluble at ~20 mg/mL) | P | P | I^(a) | 122 to 124 |  |  |  |  |  |  |  |  | 
O=C(CN(Cc1ccccc1)C(=O)c1ccc([N+](=O)[O-])cc1)NC1CCCCC1 [Compound 18, N-benzyl-N-(2-(cyclohexylamino)-2-oxoethyl)-4-nitrobenzamide] | G | G | P | G | P | P | I | 190 to 192 | 20.0 | 10.0 | 10.0 |  | 91 | 95 | 110 | 20.0 | gelation efficiency (in words) [1]: not a very efficient gelator; concentration at which gel formed ([1]; DMSO aqueous mixture): 2 wt %; morphology of the gel [2]: rod or sheet like feature
C[C@H](c1ccccc1)N(CC(=O)NC1CCCCC1)C(=O)c1ccc(Br)cc1 [Compound 19, (R)-4-bromo-N-(2-(cyclohexylamino)-2-oxoethyl)-N-(1-phenylethyl)benzamide] | G | P | S (S, soluble at ~20 mg/mL) | P | P | P | S^(c) (S, soluble at ~20 mg/mL) | 140 to 142 | 20.0 |  |  |  |  |  |  |  | 
COC1OC2COC(c3ccccc3)OC2C(O)C1N(CC(=O)NC1CCCCC1)C(=O)c1ccccc1 (stereo not drawn) [Compound 24, N-(2-(cyclohexylamino)-2-oxoethyl)-N-(8-hydroxy-6-methoxy-2-phenyl-hexahydropyrano[3,2-d][1,3]dioxin-7-yl)benzamide] | P | P | G | P | G | I | P | 261 to 263 |  |  |  | 20.0 |  |  |  |  | minimum gelation concentration ([1]; EtOH): 20.0 mg/mL
COC1OC2COC(c3ccccc3)OC2C(O)C1N(CC(=O)NC1CCCCC1)C(=O)c1ccc(Br)cc1 (stereo not drawn) [Compound 25, 4-Bromo-N-(2-(cyclohexylamino)-2-oxoethyl)-N-(8-hydroxy-6-methoxy-2-phenyl-hexahydropyrano[3,2-d][1,3]dioxin-7-yl)benzamide] | G | P | G | G | G | I | P | 291 to 293 | 20.0 |  |  | 20.0 |  |  |  | 20.0 | minimum gelation concentration ([1]; EtOH): 20.0 mg/mL

Second part, led by results:

Gelation test result ([1]; DMSO:H2O (1:1)) | Gelation test result ([1]; DMSO:H2O (1:2)) | Gelation test result ([1]; EtOH) | Gelation test result ([1]; EtOH:H2O (1:1)) | Gelation test result ([1]; EtOH:H2O (1:2)) | Gelation test result ([1]; H2O) | Gelation test result ([1]; Hexane) | melting point [°C] | minimum gelation concentration ([1]; DMSO:H2O (1:1)) [mg/mL] | minimum gelation concentration ([1]; DMSO:H2O (1:2)) [mg/mL] | MGC in DMSO:H2O (1:2) ([1]; DMSO:H2O (1:2)) [mg/mL] | minimum gelation concentration ([1]; EtOH:H2O (1:2)) [mg/mL] | T1, temperature at which gel begins to melt (Gel melting temperatures) [°C] | T2, temperature at which gel is approximately half melted (Gel melting temperatures) [°C] | T3, temperature at which gel is fully melted (Gel melting temperatures) [°C] | minimum gelation concentration ([1]; EtOH:H2O (1:1)) [mg/mL] | Structure (SMILES) | also measured
G | G | P | P | G | S (S, soluble at ~20 mg/mL) | P^(b) | 138 to 140 | 20.0 | 20.0 | 20.0 | 20.0 | 95 | 100 | 110 |  | C#CCCC(=O)N(CC(=O)NC1CCCCC1)Cc1ccccc1 [Compound 15, N-benzyl-N-(2-(cyclohexylamino)-2-oxoethyl)pent-4-ynamide] | 
P | P | P | P | P | I | I | 104 to 106 |  |  |  |  |  |  |  |  | O=C(CN(Cc1ccccc1)C(=O)c1ccccc1)NC1CCCCC1 [Compound 16, N-benzyl-N-(2-(cyclohexylamino)-2-oxoethyl)benzamide] | 
G | G | S (S, soluble at ~20 mg/mL) | G | P | P | I | 168 to 170 | 10.0 | 5.0 | 5.0 |  | 78 | 80 | 90 | 20.0 | O=C(CN(Cc1ccccc1)C(=O)c1ccc(Br)cc1)NC1CCCCC1 [Compound 17, N-benzyl-4-bromo-N-(2-(cyclohexylamino)-2-oxoethyl)benzamide] | 
G | G | P | G | P | P | P | 174 to 176 | 5.0 | 6.6 | 6.6 |  | 91 | 110 | 120 | 10.0 | COc1ccc(CN(CC(=O)NC2CCCCC2)C(=O)c2ccc(Br)cc2)cc1 [Compound 20, N-(4-methoxybenzyl)-4-bromo-N-(2-(cyclohexylamino)-2-oxoethyl)benzamide] | 
G | G | G | G | G | S (S, soluble at ~20 mg/mL) | I | 123 to 125 | 2.5 | 2.0 | 2.0 | 2.8 | 70 | 75 | 81 | 5.0 | CCOC(=O)CNC(=O)CN(Cc1ccc(OC)cc1)C(=O)c1ccc(Br)cc1 [Compound 21, Ethyl 2-(2-(N-(4-methoxybenzyl)-4-bromobenzamido)acetamido)acetate] | gelation efficiency (in words) [1]: most efficient gelator identified in this study; minimum gelation concentration ([1]; EtOH): 20.0 mg/mL; average diameter of fibrous structures ([2]; EtOH/H2O gel): 0.5 μm; length of fibrous structures ([2]; EtOH/H2O gel): over 300 μm; morphology of the gel [2]: very long and uniform fibrous assemblies
P | G | S (S, soluble at ~20 mg/mL) | P | P | S (S, soluble at ~20 mg/mL) | I | 94 to 96 |  | 20.0 | 20.0 |  | 50 | 52 | 58 |  | CCOC(=O)CNC(=O)CN(Cc1ccc(OC)cc1)C(=O)c1ccccc1 [Compound 23, Ethyl 2-(2-(N-(4-methoxybenzyl)benzamido)acetamido)acetate] | 

Reference: patent publication US20140296354A1, “SYNTHESIS OF PEPTOID-BASED SMALL MOLECULAR GELATORS FROM MULTIPLE COMPONENT REACTIONS” (OLD DOMINION UNIVERSITY RESEARCH FOUNDATION, priority 2013, published 2014)
